In article PMC11006503, “New Tin (IV) and Organotin (IV) Complexes with a Hybrid Thiosemicarbazone/Hydrazone Ligand: Synthesis, Crystal Structure, and Antiproliferative Activity” (Bioinorganic Chemistry and Applications, 2024):
“Also recorded” adds a separate entry of the source. Like-named read-outs stand apart in the source and are kept apart here.

Legend:
Format in all cases: cell-based, human
MDA-MB-231 cells [1] = experiment: Cellular ROS measurement using DCFDA (fluorescence microscopy and flow cytometry)
Procedure: To measure the production of intercellular reactive oxygen species (ROS) produced by treatment with complex 3, the DCFDA method was used. MDA-MB-231 cells were seeded in a 6-well plate and treated with complex 3 (0.25 µM, 0.5 µM, and 1 µM) for 24 h using arsenic as a positive control agent and NAC as negative control. Post treatment, the media was discarded and incubated with 10 µM H2DCFDA for 30 min at 37°C. For fluorescence imaging, cells incubated with H2DCFDA were washed, resuspended in 1 × PBS, and directly imaged under a fluorescence microscope (Leica). For flow cytometric analysis, cells were then trypsinized, washed with 1 × PBS, and collected in centrifuge tubes. DCF fluorescence was measured using BD FACSVerse flow cytometer (BD Biosciences) and analyzed using Cell Quest software (BD Biosciences).

HeLa = experiment: MTT cell proliferation assay; conditions: 24 h; for IC50: MTT, mean ± SEM
Procedure: (§1) Four cancerous cell lines (human triple negative breast cancer cell line MDA-MB-231, human cervical cancer cell line HeLa, human prostate cancer cell line PC3, and human liver cancer cell line HepG2) and the human normal lung fibroblast cell line, WI-38, were obtained from the central cell repository of National Centre for Cell Science (NCCS), Pune. The cell lines were cultured in a T25 flask with Dulbecco's modified Eagle medium (DMEM), supplemented with 10% foetal bovine serum, nonessential amino acids, 1 mM sodium pyruvate, 2 mM L-glutamine, 100 mg/L streptomycin, […] penicillin, and 50 mg/L gentamycin in a 37°C humidified incubator containing 5% CO2. […] As DMSO has been used to prepare the different concentrations of the compounds, we have added 0.5% DMSO in the control setup. After the incubation period, media was discarded from the 96-well plates and washed with 1 × PBS solution twice. Then, MTT (100 µL; 0.5 mg/mL) was added to each well and incubated in a humidified incubator containing 5% CO2 at 37°C for 4 h. After discarding the supernatant, the purple-colored formazan crystals formed in the wells were dissolved with 100 μL DMSO per well and the absorbance was estimated at 490 nm using a microplate reader. The experiments were repeated three times, and the cell viability was expressed as a percentage of the control experimental setup. […] For all the MTT assays, three fully independent experiments have been performed, and each experiment has been conducted with biological triplicate samples.

HepG2 = experiment: MTT cell proliferation assay; conditions: for IC50: MTT, mean ± SEM
Procedure: as §1

MDA-MB-231 = experiment: MTT cell proliferation assay; conditions: for IC50: MTT, mean ± SEM, read-out: IC50 MDA-MB231
Procedure: as §1

PC3 = experiment: MTT cell proliferation assay; conditions: for IC50: MTT, mean ± SEM
Procedure: as §1

[2] = test system: WI-38 normal lung fibroblast cell line; experiment: MTT cell proliferation assay; conditions: for IC50: normal cell line, MTT, mean ± SEM
Procedure: as §1

MDA-MB-231 cells [3] = experiment: Annexin V-FITC/PI staining apoptosis assay (flow cytometry); conditions: for annexin-V-FITC+/PI− (early apoptotic) and annexin V-FITC+/PI+ (late apoptotic) cell population: control 0.01%
Procedure: Induction of apoptosis was quantified via flow cytometric analysis of control ([…]) and cells treated with complex 3 (0.25 µM, 0.5 µM, and 1 µM) that were stained with annexin V-FITC/PI [50], using the Annexin V-FITC apoptosis detection kit according to the manufacturer's protocol (BD Bioscience). Post treatment cells were harvested with 1 × trypsin and washed in ice 1 × PBS followed by resuspension in 100 µL of 1 × binding buffer solution supplied within the kit. Finally, cells were incubated with 5 μL of annexin V-FITC and 5 μL of PI for 15 min at room temperature in the dark before acquiring data using BD FACSVerse flow cytometer (BD Biosciences, San Jose, CA). Annexin V/FITC positive cells were regarded as apoptotic cells analyzed using Cell Quest software (BD Biosciences).

MDA-MB-231 cells [4] = experiment: Mitochondrial membrane potential by JC1 staining (fluorescence microscopy and flow cytometry); conditions: for cellular population with increase in JC1 green fluorescence intensity (flow cytometry): control 3.93%
Procedure: The changes in mitochondrial membrane permeability were determined by JC1 (molecular probes). MDA-MB-231 cells were treated with compound 3 (0.25 µM, 0.5 µM, and 1 µM) for the indicated time period, harvested, washed twice in 1 × PBS, resuspended in PBS supplemented with JC1 dye (3 µM final concentration), and incubated for 15 min in the dark at 37°C and flow cytometric analysis was immediately performed using a FACSVerse instrument (BD) or images were captured with fluorescent microscope (Leica).

MDA-MB-231 cells [5] = experiment: Cell cycle profiling by propidium iodide staining (flow cytometry); conditions: 1.0 µM, 24 h, mean ± SEM
Procedure: MDA-MB-231 cells were seeded at a density of 1 × 10^6 cells/mL in each Petri dish for 24 h. Thereafter, the cells were treated with increasing concentration of complex 3 (0.25 µM, 0.5 µM, and 1 µM) for 24 h and 0.5% DMSO was added in the control setup. Post treatment, cells were harvested into single cell suspension and fixed by 75% ethanol for 24 h. at −20°C. After centrifugation, the cells pellets were resuspended in 1 × PBS followed by RNaseA (20 μM) treatment for 2 h at 37°C. Finally, propidium iodide was added and incubated at room temperature for 20 min. Subsequently, the samples were measured using BD FACSVerse flow cytometer (BD Biosciences, San Jose, CA) and analyzed using BD FACS DIVA software.

For [As] [arsenic, reference compound], the “mean fluorescence intensity (MFI), fold change in comparison with the control (H2DCFDA, flow cytometry)” value (MDA-MB-231 cells [1]; 1 µM, 24 h) was 4.91 ± 0.05 fold and the “fold increase of green fluorescence intensity (H2DCFDA, fluorescence microscopy)” value (MDA-MB-231 cells [1]; positive control, concentration not given) was 4.28 ± 0.09 fold.

Work on N.N.[Cl][Pt][Cl] [Cisplatin, cisplatin, reference compound] yielded an IC50 (HeLa) of 3.26 ± 0.23 µM, an IC50 (HepG2; 24 h) of 11.5 ± 2.06 µM and an IC50 (MDA-MB-231; 24 h) of 8.25 ± 1.64 µM. For the same compound, the IC50 (PC3; 24 h) was 5.36 ± 1.24 µM, the IC50 ([2]; 24 h) was 20.6 ± 1.52 µM and the “early apoptotic cell population (LR quadrant)” value (shortened to “early apoptotic cell population”) (MDA-MB-231 cells [3]; 8 µM, positive control) was 44.46%. For the same compound, the “late apoptotic cell population (UR quadrant)” value (from here on “late apoptotic cell population”) (MDA-MB-231 cells [3]; 8 µM, positive control) was 18.52% and the “JC1 aggregate/JC1 monomer fluorescence intensity ratio (fluorescence microscopy)” value (MDA-MB-231 cells [4]; 8 µM) was 0.25 ± 0.06.

For CC(=N\NC(=O)c1ccncc1)/C(C)=N/NC(N)=S [L ^ 1 H 2, Diacetyl-2-(Thiosemicarbazone)-3-(Isonicotinichydrazone)], the IC50 (HeLa; Homo sapiens, HeLa) was 1.06 ± 0.21 µM, the IC50 (HepG2; Homo sapiens, HepG2, 24 h) was 5.14 ± 0.52 µM and the IC50 (MDA-MB-231; Homo sapiens, MDA-MB-231, 24 h) was 2.42 ± 0.33 µM. It also gave an IC50 (PC3; Homo sapiens, PC-3, 24 h) of 4.86 ± 0.75 µM and an IC50 ([2]; Homo sapiens, WI-38, 24 h) of 10.8 ± 0.96 µM.

With CC1=[N+]2N=C(N)[S][Sn-2]23([c]2ccccc2)([c]2ccccc2)[O]C(c2ccncc2)=N[N+]3=C1C [complex 3, [SnPh2L^1]n] the “Percentage of cell viability Hela” value (HeLa; 0.25 µM) was 70%, the “Percentage of cell viability Hela” value (HeLa; 0.5 µM) was 46.24% and the “Percentage of cell viability Hela” value (HeLa; 1 µM) was 30.21%. The “Percentage of cell viability Hela” value (HeLa; 2 µM) was 25.19%, the “Percentage of cell viability Hela” value (HeLa; 5 µM) was 20.16% and the “Percentage of cell viability HepG2” value (HepG2; 0.25 µM, 24 h) was 80.36%. The “Percentage of cell viability HepG2” value (HepG2; 0.5 µM, 24 h) was 70.36%, the “Percentage of cell viability HepG2” value (HepG2; 1 µM, 24 h) was 58.39% and the “Percentage of cell viability HepG2” value (HepG2; 2 µM, 24 h) was 45.27%. The “Percentage of cell viability HepG2” value (HepG2; 5 µM, 24 h) was 30.68%, the IC50 (HepG2; 24 h) was 1.59 ± 0.17 µM and the “Percentage of cell viability MDA-MB 231” value (MDA-MB-231; 0.25 µM, 24 h) was 65.43%. The “Percentage of cell viability MDA-MB 231” value (MDA-MB-231; 0.5 µM, 24 h) was 50.06%, the “Percentage of cell viability MDA-MB 231” value (MDA-MB-231; 1 µM, 24 h) was 28.63% and the “Percentage of cell viability MDA-MB 231” value (MDA-MB-231; 2 µM, 24 h) was 20.19%. The “Percentage of cell viability MDA-MB 231” value (MDA-MB-231; 5 µM, 24 h) was 18.37%, the IC50 (MDA-MB-231; 24 h) was 0.51 ± 0.13 µM and the “Percentage of cell viability PC3” value (PC3; 0.25 µM, 24 h) was 82.17%. The “Percentage of cell viability PC3” value (PC3; 0.5 µM, 24 h) was 76.09%, the “Percentage of cell viability PC3” value (PC3; 1 µM, 24 h) was 60.16% and the “Percentage of cell viability PC3” value (PC3; 2 µM, 24 h) was 48.24%. The “Percentage of cell viability PC3” value (PC3; 5 µM, 24 h) was 35.73%, the IC50 (PC3; 24 h) was 1.97 ± 0.24 µM and the “Percentage of cell viability WI-38” value ([2]; 0.25 µM, 24 h) was 98.36%. The “Percentage of cell viability WI-38” value ([2]; 0.5 µM, 24 h) was 95.32%, the “Percentage of cell viability WI-38” value ([2]; 1 µM, 24 h) was 80.17% and the “Percentage of cell viability WI-38” value ([2]; 2 µM, 24 h) was 76.21%. For the same compound, the “Percentage of cell viability WI-38” value ([2]; 5 µM, 24 h) was 70.24%, the IC50 ([2]; 24 h) was 15.7 ± 0.28 µM and the “G2/M cell population (G2/M arrest)” value (MDA-MB-231 cells [5]) was 56.07%. For the same compound, the “early apoptotic cell population” value (MDA-MB-231 cells [3]; 0.25 µM, 24 h) was 15.99%, the “late apoptotic cell population” value (MDA-MB-231 cells [3]; 0.25 µM, 24 h) was 5.24% and the “annexin-V-FITC+/PI− (early apoptotic) and annexin V-FITC+/PI+ (late apoptotic) cell population” value (“annexin-V-FITC+/PI−” below) (MDA-MB-231 cells [3]; 0.25 µM, 24 h) was 21.23%. The “early apoptotic cell population” value (MDA-MB-231 cells [3]; 0.5 µM, 24 h) was 36.25%, the “late apoptotic cell population” value (MDA-MB-231 cells [3]; 0.5 µM, 24 h) was 21.56% and the “annexin-V-FITC+/PI−” value (MDA-MB-231 cells [3]; 0.5 µM, 24 h) was 57.81%. The “early apoptotic cell population” value (MDA-MB-231 cells [3]; 1 µM, 24 h) was 32.32%, the “late apoptotic cell population” value (MDA-MB-231 cells [3]; 1 µM, 24 h) was 34.15% and the “annexin-V-FITC+/PI−” value (MDA-MB-231 cells [3]; 1 µM, 24 h) was 66.47%. The “necrotic cell population zone” value (MDA-MB-231 cells [3]; 0.25, 0.5 and 1 µM, 24 h) was “No significant cell population”, the “mean fluorescence intensity (MFI), fold change in comparison with the control (H2DCFDA, flow cytometry)” value (MDA-MB-231 cells [1]; 0.25 µM, 24 h) was 1.47 ± 0.17 fold and the “mean fluorescence intensity (MFI), fold change in comparison with the control (H2DCFDA, flow cytometry)” value (MDA-MB-231 cells [1]; 0.5 µM, 24 h) was 2.58 ± 0.23 fold. The “ROS generation / MFI in cells pretreated with N-acetylcysteine (NAC)” value (MDA-MB-231 cells [1]; 1 µM, 10 mM NAC pretreatment, compared to complex 3 alone) was “reduce the generation of ROS; also recorded: decrease in the MFI value”, the “fold increase in fluorescence intensity in comparison to control (H2DCFDA, fluorescence microscopy)” value (MDA-MB-231 cells [1]; 1 µM, 24 h) was 3.57 ± 0.08 fold and the “mean fluorescence intensity (MFI), fold change in comparison with the control (H2DCFDA, flow cytometry)” value (MDA-MB-231 cells [1]; 1 µM, 24 h) was 4.73 ± 0.14 fold. For the same compound, the “JC1 aggregate/JC1 monomer fluorescence intensity ratio (fluorescence microscopy)” value (MDA-MB-231 cells [4]; 0.25 µM, 24 h) was 1.36 ± 0.78, the “cellular population with increase in JC1 green fluorescence intensity (flow cytometry)” value (“cellular population with increase” for short) (MDA-MB-231 cells [4]; 0.25 µM, 24 h) was 37.47% and the “cellular population with increase” value (MDA-MB-231 cells [4]; 0.5 µM, 24 h) was 52.22%. For the same compound, the “JC1 aggregate/JC1 monomer fluorescence intensity ratio (fluorescence microscopy)” value (MDA-MB-231 cells [4]; 1 µM, 24 h) was 0.27 ± 0.13 and the “cellular population with increase” value (MDA-MB-231 cells [4]; 1 µM, 24 h) was 74.51%.

For CC1=[N+]2N=C(N)[S][Sn-2]23([CH3])([CH3])[O]C(c2ccncc2)=N[N+]3=C1C [complex 1, [SnMe2L^1]n], the IC50 (HeLa) was 2.22 ± 0.54 µM, the IC50 (HepG2; 24 h) was 4.97 ± 0.76 µM and the IC50 (MDA-MB-231; 24 h) was 3.54 ± 0.34 µM. It also gave an IC50 (PC3; 24 h) of 2.76 ± 0.52 µM and an IC50 ([2]; 24 h) of 15.6 ± 0.73 µM.

CC(=N\NC(=O)c1ccncc1)/C(C)=N/NC(N)=S [[L ^ 1 H 3 ]Cl] [Diacetyl-2-(Thiosemicarbazone)-3-(Isonicotinichydrazonium) Chloride] was tested, and the IC50 (HeLa) was 1.49 ± 0.46 µM, the IC50 (HepG2; 24 h) was 6.27 ± 0.98 µM and the IC50 (MDA-MB-231; 24 h) was 2.48 ± 0.47 µM. For the same compound, the IC50 (PC3; 24 h) was 3.49 ± 0.73 µM and the IC50 ([2]; 24 h) was 14.1 ± 0.48 µM.
